In patent US8293979B2, “Weed controller metabolism proteins, genes, thereof and use of the same” (Sumitomo Chemical Company, Limited, priority 2001, dated 2012):

Experiments:
[1] = system: present invention protein (A11); test: Metabolism of compounds by the present invention protein (A11), reaction solution, HPLC; type: in vitro ADME, Streptomyces nogalator IFO13445; details: 5 ppm of compound, components A, B, C, 20 μl supernatant fraction of Example 32(2), 30° C. for 10 minutes
Protocol: There was prepared 100 μl of a reaction solution of 50 mM potassium phosphate buffer (pH7.0) containing 5 ppm of compound (XII), 3 mM of […] (hereinafter, referred to as “component A”) (Oriental Yeast Company), 1 mg/ml of a ferredoxin derived from spinach (hereinafter referred to as “component B”) (Sigma Company), 0.15 U/ml of ferredoxin reductase (hereinafter, referred to as “component C”) (Sigma Company) and 20 μl of the supernatant fraction recovered in Example 4(2). The reaction solution was maintained at 30° C. for 10 minutes. Further, there was prepared and maintained similarly 100 μl of a reaction solution of a 50 mM potassium phosphate buffer (pH 7.0) having no addition of at least one component utilized in the composition of the above reaction solution, selected from component A, component B, component C and the supernatant fraction prepared in Example 4(2). Ten microliters (10 μl) of 2N HCl and 500 μl of ethyl acetate were added and mixed into each of the reaction solutions after the maintenance. The resulting reaction solutions were centrifuged at 8,000×g to recover 490 μl of the ethyl acetate layer. After drying the ethyl acetate layers under reduced pressure, the residue was dissolved in 100 μl of 50 mM of potassium phosphate buffer (pH7.0). Forty microliters (40 μl) of the fraction solutions (hereinafter, the fraction solution derived from the reaction solution containing component A, component B, component C and 20 μl of supernatant fraction recovered in Example 4(2) is referred to as “(XII) metabolism solution (A1);” further, the fraction solution derived from the reaction solution containing no component A, no component B, no component C and no supernatant fraction recovered in Example 4(2) is referred to as “(XII) control solution (A1)”) were analyzed on a HPLC. Compared to the concentration of compound (XII) detected from (XII) control solution (A1), the concentration of compound (XII) detected from (XII) metabolism solution (A1) was lower. Further a peak, which was not detected from the (XII) control solution (A1), was detected from the (XII) metabolism solution (A1). Mass spectrometry was conducted for the compound contained in such a peak. […]
Other than utilizing 20 μl of the supernatant fraction recovered in Example 32(2) instead of 20 μl of the supernatant fraction recovered in Example 4(2), the reaction solutions were prepared and maintained in accordance with the method described in Example 41(2). […] Compared to the concentration of compound (XII) detected from (XII) control solution (A11), the concentration of compound (XII) detected from (XII) metabolism solution (A11) was lower. Further a peak, which was not detected from the (XII) control solution (A11), was detected from the (XII) metabolism solution (A11). […]

[2] = system: present invention protein (A16); test: Metabolism of compounds by the present invention protein (A16), reaction solution, HPLC; type: in vitro ADME, Streptomyces ornatus IFO 13069t; details: 12.5 ppm of compound, components A, B, C, 20 μl supernatant fraction of Example 49(2), 30° C. for 10 minutes
Protocol: There was prepared 100 μl of a reaction solution of 50 mM potassium phosphate buffer (pH7.0) containing 12.5 ppm of compound (XII), 3 mM of β-NADPH (hereinafter, referred to as “component A”) (Oriental Yeast Company), 1 mg/ml of a ferredoxin derived from spinach (hereinafter referred to as “component B”) (Sigma Company), 0.15 U/ml of ferredoxin reductase (hereinafter, referred to as “component C”) (Sigma Company) and 20 μl of the supernatant fraction recovered in Example 49(2). The reaction solution was maintained at 30° C. for 10 minutes. […] Forty microliters (40 μl) of the liquid filtrate (hereinafter, the liquid filtrate derived from the reaction solution containing component A, component B, component C and 20 μl of supernatant fraction recovered in Example 49(2) is referred to as “(XII) metabolism solution (A16);” further, the liquid filtrate derived from the reaction solution containing no component A, no component B, no component C and no supernatant fraction recovered in Example 49(2) is referred to as “(XII) control solution (A16)”) were analyzed on a HPLC under the above analysis condition 1. Compared to the concentration of compound (XII) detected from (XII) control solution (A16), the concentration of compound (XII) detected from (XII) metabolism solution (A16) was lower. […]

[3] = system: present invention protein (A23); test: Metabolism of compounds by the present invention protein (A23), reaction solution, HPLC; type: in vitro ADME, Streptomyces roseorubens IFO 13682T; details: 12.5 ppm of compound, components A, B, C, 20 μl supernatant fraction of Example 63(2), 30° C. for 10 minutes

| SMILES | concentration of the compound detected from metabolism solution (A11) compared to control solution (A11) [1] | concentration of the compound detected from metabolism solution (A16) compared to control solution (A16) [2] | concentration of the compound detected from metabolism solution (A23) compared to control solution (A23) [3] |
| --- | --- | --- | --- |
| Cn1c(C(F)(F)F)cc(=O)n(-c2cc(Oc3cccnc3OCC(=O)O)c(Cl)cc2F)c1=O [compound (XII)] | lower | lower | lower |
| Cn1c(C(F)(F)F)cc(=O)n(-c2cc(Oc3ccccc3OCC(=O)O)c(Cl)cc2F)c1=O [compound (XIII)] | lower | – | lower |
